Experimental data from patent US20230094545A1, “S1P RECEPTOR MODULATORS” (AKAAL PHARMA PTY LTD, priority 2020, published 2023).
Entries after “also recorded” stand apart in the source; their conditions may differ.

What was measured:
EAE = assay: Animal model of multiple sclerosis (EAE induced with guinea pig MBP); format: in vivo, Lewis rats; settings: EAE rats, oral every day until day 26
Procedure: The oral treatment with a compound of formula (I) was conducted in an animal model of multiple sclerosis. EAE was induced in female Lewis rats with guinea pig MBP (25 μg/rat).

[1] = test system: atopic dermatitis and psoriasis disease models; assay: Atopic dermatitis and psoriasis disease models, cytokines; settings: in vivo
[2] = test system: microglial (BV2 cells) and macrophages (Raw cells); assay: LPS-treated microglial and macrophage cells, cytokines by ELISA; format: cell-based; settings: 1-5 μg/mL, 4 hrs prior to LPS 500 ng/mL, p<0.05
Procedure: Treatment of a compound of formula (I) (1-5 μg/mL) to the cultured microglial (BV2 cells) and macrophages (Raw cells) was made 4 hrs prior to treatment with lipopolysaccharide (LPS) at 500 ng/mL. After 16-18 hr of drug treatment the cytokines (TNFα, IL1β and IL6) were measured in culture media by ELISA and expression levels of cyclooxygenase2 (Cox-2), inducible […] (iNOS) or beta actin were analysed in cell homogenates by western analysis.

[3] = Systemic exposure and lymphopenia in mice; format: in vivo
[4] = test system: burn wound and scratch wounds; assay: Topical formulation in wound patients (case reports); format: in vivo, human
Procedure: A patient presented with a second degree burn wound on the inner surface of their middle finger of their left hand, suffering from swelling, blistering and pain at the site of injury. A topical gel formulation of compound of formula (I) was applied topically to the site of injury.
A patient presented with a scratch wounds on hands while cleaning gutters. These become inflamed and painful in 3 hours.

atopic dermatitis = assay: Topical treatment of atopic dermatitis patients; format: in vivo, human
Procedure: (§1) Atopic dermatitis patients were treated with the compound of Formula I@60 mg daily dosing as topical treatment for 28 consecutive days.

[5] = Topical treatment of atopic dermatitis patients; format: in vivo, human; settings: human, in vivo; by week 3, 60 mg daily topical; read-out: systemic exposure
Procedure: as §1

S1P1 receptor = S1P1 receptor (Homo sapiens, UniProt P21453); assay: S1P1 receptor degradation (activity v/s degradation margin); format: cell-based
[6] = Single oral dose in healthy human subjects: systemic exposure, heart rate, lymphopenia; format: in vivo; settings: humans; for bradycardia: 0.5 mg to 12 mg single oral dose, 72 hours monitoring
Procedure: The observance of bradycardia with S1P1 selective agonists has been reported to be species specific.
Human subjects were treated in cohorts of different dose levels (each cohort=8 human subjects) with a compound of formula (I)@0.5 mg, 2 mg, 6 mg and 12 mg single oral dose.

Incision mediated pain = assay: Deep incision wound mediated pain, topical treatment; format: in vivo, Sprague Dawley Rats
Description: (§2) The total 24 female Sprague Dawley Rats were assigned to two test and two control groups having 6 animals per group. Animals from G1 and G2 received CFA on Day 1 by intraplanter route followed application of test item (0 and 3% respectively), onto injection site from Day 1 to Day 7. Group G3 and G4 animals received deep incision through the skin and fascia of the plantar foot followed by application of test item (0 and 3% respectively), onto the incision site from Day 1 to Day 7. Clinical signs, body weight and pain assessment parameters like Von Frey estimation and FOB was evaluated and the pain reduction results at Day 7 are summarized in Table 7.

[7] = test system: experimental autoimmune encephalomyelitis (EAE); assay: EAE model, RT-PCR for IL-31, IL1β and IFNγ in spleen; format: in vivo; settings: 3 mg/kg from 11th day, Day 27
Procedure: The efficacy of the compound of formula (I) was assessed in an animal model of experimental autoimmune encephalomyelitis (EAE), which is a widely-accepted model of demyelinating diseases such as MS. The cDNA was prepared from spleen obtained from Vehicle treated (Control), EAE induced (no treatment) and EAE induced (a compound of formula (I) treated) animals (n=5 each group) at the recovery (Day 27 from 1st day of MBP immunization). The treatment with a compound of Formula I (3 mg/kg) was initiated on the 11th day from MBP immunization. cDNA was synthesized using Bio-Rad cDNA synthesis kit. RT-PCR was performed for IL-31, IL1β and IFNγ. Primers were obtained from Qiagen and the samples were analysed on Bio-Rad CFX96Real-Time System. […] Statistical Significance of the data is represented by p value. *denotes p≤0.05, **denotes p≤0.01.

[8] = test system: formalin induced nociception; assay: Formalin induced nociception (pain); format: in vivo, Sprague Dawley rats
Procedure: Forty male Sprague Dawley rats were assigned to different treatment and control groups containing 8 animals/group. The groups were treated with different doses of a compound of Formula I and received either 0.03, 0.3 and 3.0 mg/kg dose, administered orally 30 min before formalin injection. Tramadol hydrochloride (30 mg/kg) was administered orally 30 min before formalin injection as a positive control. Deionized water was used as a negative control (Vehicle) and administered orally 30 min before formalin injection. Individual rats were then gently restrained and formalin (5% in v/v in saline, 50 μl, s.c.) was injected into the plantar surface of the left hind paw using a 27G needle. Post-formalin nociceptive behaviour, paw flinching was recorded for 60 min, in bins of 5 min. The intra plantar injection of formalin (50 μl, 5% v/v) induced marked flinching of the ipsilateral rat paw with typical biphasic response in the vehicle/distilled water treated animals. […] Inhibition of nociceptive behaviour at 0.3 mg/kg (33%, p<0.05) and 3.0 mg/kg (45%, p<0.01) were statistically significant compared to vehicle control.

CFA mediated pain = assay: CFA (Freund's adjuvant) mediated pain, topical treatment; format: in vivo, Sprague Dawley Rats
Description: as §2

[9] = 3% topical Day 1 to Day 7, day 7

Chain of S1P1 receptor (P21453 whole entry): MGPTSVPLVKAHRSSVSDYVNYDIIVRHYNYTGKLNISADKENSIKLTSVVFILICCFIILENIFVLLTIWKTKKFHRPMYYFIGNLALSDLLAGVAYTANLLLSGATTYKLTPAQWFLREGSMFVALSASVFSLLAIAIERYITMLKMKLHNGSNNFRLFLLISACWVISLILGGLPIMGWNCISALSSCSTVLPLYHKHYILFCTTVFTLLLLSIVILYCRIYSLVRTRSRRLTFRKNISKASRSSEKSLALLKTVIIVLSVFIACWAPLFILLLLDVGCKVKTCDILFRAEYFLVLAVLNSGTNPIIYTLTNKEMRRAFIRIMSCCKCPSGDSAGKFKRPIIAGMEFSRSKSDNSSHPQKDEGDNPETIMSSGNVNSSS

CCCOc1ccc(-c2nc(-c3ccc4oc(C(N)(CO)CO)cc4c3)no2)cc1Cl [compound of formula (I)]
lymphopenia (EAE): lymphopenia was less; also recorded: short-term and quickly reversed | cytokines IL17, IL23, IL2 [1]: downregulates the cytokines IL17, IL23, IL2 | proinflammatory cytokines (TNFα, IL1β and IL6) [2]: significant reduction of proinflammatory cytokines | measured lymphopenia ([3]; 0.3 mg/kg, 6 hours post dose): 40% | systemic exposure ([3]; dose of 0.3 mg/kg): 6.36 ng/mL | adverse side effects ([4]; both cases): No adverse side effects | swelling and pain of scratch wounds ([4]; ointment formulation, one patient): swelling and pain reduced dramatically | swelling and blistering of burn wound ([4]; topical gel formulation, after 10 minutes, one patient): swelling and blistering had visibly reduced dramatically | pain of burn wound ([4]; topical gel formulation, one patient): significant pain relief | EASI score and pruritus score (atopic dermatitis; 60 mg daily topical, 28 days): reduction compared to baseline | absolute lymphocyte count (atopic dermatitis; 60 mg daily topical, 28 days): no systemic change in the absolute lymphocyte count | tolerability (atopic dermatitis; 60 mg daily topical, 28 days): well tolerated | lymphopenia (atopic dermatitis; by week 3): no lymphopenia event | concentration at 3 week [5]: 1 to 2.5 ng/mL | activity v/s degradation margin (S1P1 receptor): greater than 100 | systemic exposure ([6]; 0.5 mg single oral dose): 0.6 ng/mL | bradycardia [6]: no bradycardia events | bradycardia ([6]; listed as S1P1 receptor modulator of formula (I)): did not induce bradycardia | bradycardia ([6]; listed as compound of Formula I): no dose proportional or dose relevant bradycardia event | systemic exposure ([6]; 2 mg single oral dose): 2.4 ng/mL | systemic exposure ([6]; 6 mg single oral dose): 7.1 ng/mL | systemic exposure ([6]; 12 mg single oral dose): 18.8 ng/mL | lymphopenia ([6]; dose of ~0.17 mg/kg): no induction of significant lymphopenia | systemic exposure ([6]; dose of ~0.17 mg/kg): 18.8 ng/mL | Pain reduction results at Day 7, Incision mediated pain (Incision mediated pain; 3% (G4), Placebo (G3) 0.33): 0.11 | pain relief (Incision mediated pain; [9]): 67% | markers of inflammation (IL-31, IL1β, IFNγ, RT-PCR, spleen) [7]: significantly reduced markers of inflammation | inhibition of nociceptive behaviour ([8]; 0.3 mg/kg oral 30 min before formalin, p<0.05): 33% | inhibition of nociceptive behaviour ([8]; 3.0 mg/kg oral 30 min before formalin, p<0.01): 45% | nociceptive behaviour ([8]; 0.03, 0.3 and 3 mg/kg oral 30 min before formalin): inhibited nociceptive behaviour | Pain reduction results at Day 7, CFA mediated pain (CFA mediated pain; 3% (G2), Placebo (G1) 0.17): 0.00 | pain relief (CFA mediated pain; [9]): complete pain relief
